Measured values taken from patent EP0298135A1, “Phenylalanine derivative and proteinase inhibitor” (Okamoto, Shosuke, priority 1987, dated 1989).

Columns and labels:
Type in all cases: biochemical
bovine thrombin [1] = target: T1, bovine thrombin (Bos taurus, UniProt P00735); assay: Antithrombin activity: inhibition of S-2238 decomposition
Description: (ii) Determination of inhibition activity on S-2238 decomposition
An inhibitor sample is dissolved in a 0.05 M Tris-hydrochloric acid buffer solution (pH = 8.3) to bring the a total volume to 400 µl. To this solution, 50 µl of a 0.2 mM S-2238 solution is added and the mixture is incubated at a temperature of 37°C for 5 minutes in a constant temperature bath. Then 50 µl of a 0.2 unit/ml bovine thrombin solution is added thereto and the absorbance, at 405 nm, of the p-nitroaniline formed per minute is determined at a temperature of 37°C by using the so-called initial velocity method. Thus, the concentration I₅₀ (µmol) of the inhibitor sample, at which the absorbance is one half (i.e., l/2) of that obtained in the absence of the inhibitor sample, is determined.

human plasmin [2] = target: T2, human plasmin (Homo sapiens, UniProt P00747); assay: Antiplasmin activity: inhibition of fibrin decomposition; settings: Table 2; concentration at which fibrin dissolution time is extended twice, pH 7.4, 37°C; read-out: Plasmin Fibrin (concentration I₅₀)
T2 sequence (P00747 581-810 limits assumed): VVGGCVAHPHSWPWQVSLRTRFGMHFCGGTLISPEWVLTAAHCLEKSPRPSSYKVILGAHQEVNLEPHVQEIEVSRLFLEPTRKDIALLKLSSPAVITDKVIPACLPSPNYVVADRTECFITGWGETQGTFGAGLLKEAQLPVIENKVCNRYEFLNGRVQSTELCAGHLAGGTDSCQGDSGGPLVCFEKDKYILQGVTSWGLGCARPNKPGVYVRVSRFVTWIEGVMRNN
T2 sequence (P00747 97-580 partner limits assumed): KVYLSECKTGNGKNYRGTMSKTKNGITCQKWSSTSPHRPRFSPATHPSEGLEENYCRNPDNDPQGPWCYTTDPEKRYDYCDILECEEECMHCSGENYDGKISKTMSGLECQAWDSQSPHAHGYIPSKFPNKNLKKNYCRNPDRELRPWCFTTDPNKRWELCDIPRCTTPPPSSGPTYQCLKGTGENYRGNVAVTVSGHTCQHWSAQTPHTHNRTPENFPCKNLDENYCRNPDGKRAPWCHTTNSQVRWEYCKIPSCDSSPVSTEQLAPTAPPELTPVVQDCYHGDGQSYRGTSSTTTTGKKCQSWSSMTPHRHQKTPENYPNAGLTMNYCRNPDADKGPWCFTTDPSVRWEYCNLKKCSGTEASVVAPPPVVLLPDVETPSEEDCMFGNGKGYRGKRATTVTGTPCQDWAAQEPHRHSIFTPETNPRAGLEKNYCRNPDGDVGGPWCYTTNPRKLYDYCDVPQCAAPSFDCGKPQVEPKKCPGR
Description: (i) Determination of inhibition activity on fibrin decomposition
An inhibitor sample is dissolved in a 0.l8 M borate-physiological salt buffer solution (pH = 7.4) to bring the total volume to 600 µl. To this buffer solution, 200 µl of a 0.2% bovine fibrinogen, l00 µl of a 0.3 casein unit/ml human plasmin solution, and l00 µl of a 50 unit/ml bovine thrombin solution, all dissolved in the above-mentioned buffer, are added at a temperature of 37°C in a constant temperature bath. The dissolution time of the fibrin mass formed above is then determined.

bovine trypsin = target: T3, bovine trypsin (Bos taurus, UniProt P00760); assay: Antitrypsin activity: inhibition of S-2238 decomposition; settings: Table 2; substrate S-2238, pH 8.1, 37°C; read-out: Trypsin S-2238 (concentration I₅₀)
T3 sequence (P00760 24-246): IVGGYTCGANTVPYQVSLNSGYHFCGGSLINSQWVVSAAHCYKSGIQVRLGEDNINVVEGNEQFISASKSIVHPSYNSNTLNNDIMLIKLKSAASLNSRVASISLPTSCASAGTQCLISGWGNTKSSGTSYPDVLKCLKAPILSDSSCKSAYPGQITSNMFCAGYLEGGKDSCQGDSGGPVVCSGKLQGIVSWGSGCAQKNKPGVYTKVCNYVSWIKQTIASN
Description: Determination of inhibition activity against S-2238 decomposition An inhibitor sample is dissolved in a 0.05 M Tris-imidazole buffer solution (pH = 8.l) and l25 µl of a l mM S-2238 solution is added to bring the total volume to l.20 ml. The mixture is incubated at a temperature of 37°C for 5 minutes in a constant temperature bath. To this mixture, 0.05 ml of bovine trypsin is added and the absorbance, at 405 nm, of the p-nitroaniline formed per minute is determined at a temperature of 37°C by using the so-called initial velocity method. Thus, the concentration I₅₀ (µmol) of the inhibitor sample, at which the absorbance is one half (i.e., l/2) of that obtained in the absence of the inhibitor sample, is determined.

human plasmin [3] = target: T2, human plasmin; assay: Antiplasmin activity: inhibition of S-2251 decomposition; settings: Table 2; substrate S-2251, pH 7.4, 37°C; read-out: Plasmin S-2251 (concentration I₅₀)
Description: (ii) Determination of inhibition activity on S-225l decomposition
An inhibitor sample is dissolved in a 0.05 M Tris-hydrochloric acid buffer solution (pH = 7.4) to bring the total volume to 400 µl. To this solution, 50 µl of a 3 mM S-225l solution is added and the mixture is incubated at a temperature of 37°C for 5 minutes in a constant temperature bath. Then 50 µl of a 0.2 casein unit/ml human plasmin is added and the mixture is incubated at a temperature of 37°C for 4 minutes. Thereafter, the reaction is stopped by adding 50 µl of 50% acetic acid.
Thus, the concentration I₅₀ (µmol) of the inhibitor sample, at which the absorbance is one half (i.e., l/2) of that obtained in the absence of the inhibitor, is determined.

bovine thrombin [4] = target: T1, bovine thrombin; assay: Antithrombin activity: inhibition of fibrin formation from fibrinogen
Description: (i) Determination of inhibition activity against fibrin formation
An inhibitor sample is dissolved in a 0.l8 M borate-physiological salt buffer solution (pH = 7.4) to bring the total volume to 500 µl. To this solution, 400 µl of a 0.2% bovine fibrinogen solution and l00 µl of a 4 unit/ml bovine thrombin solution are added at a temperature of 37°C in a constant temperature bath. Thus, a coagulation time is determined. The inhibitor concentration I₅₀ (µmol), at which the coagulation time obtained in the absence of the inhibitor is extended twice, is determined.

human urokinase = human urokinase (Homo sapiens, UniProt P00749); assay: Antiurokinase activity: inhibition of S-2444 decomposition; settings: Table 2; substrate S-2444, pH 8.8, 37°C; read-out: Urokinase S-2444 (concentration I₅₀)
Description: Determination of inhibition activity for S-2444 decomposition
An inhibitor sample is dissolved in a 0.05 M Tris-hydrochloric acid buffer solution (pH = 8.8) to bring the total volume to 400 µl. To this solution, 50 µl of a l mM S-2444 solution is added and the mixture is incubated at a temperature of 37°C for 5 minutes in a constant temperature bath. Then 50 µl of a 500 unit/ml human urokinase is added and the mixture is incubated at a temperature of 37°C for 5 minutes. Thereafter, 50 µl of 50% acetic acid is added to terminate the reaction. The absorbance of the p-nitroaniline formed in the reaction mixture is measured at 405 nm. Thus, the concentration I₅₀ (µmol) of the inhibitor sample, at which the absorbance is one half (i.e., l/2) of that obtained in the absence of the inhibitor sample, is determined.

human plasma kallikrein = human plasma kallikrein (Homo sapiens, UniProt P03952); assay: Anti-plasma kallikrein activity: inhibition of S-2302 decomposition; settings: Table 2; substrate S-2302, pH 7.8, 37°C; read-out: Plasma Kallikrein S-2302 (concentration I₅₀)
Sequence of human plasma kallikrein (P03952 391-638 limits assumed): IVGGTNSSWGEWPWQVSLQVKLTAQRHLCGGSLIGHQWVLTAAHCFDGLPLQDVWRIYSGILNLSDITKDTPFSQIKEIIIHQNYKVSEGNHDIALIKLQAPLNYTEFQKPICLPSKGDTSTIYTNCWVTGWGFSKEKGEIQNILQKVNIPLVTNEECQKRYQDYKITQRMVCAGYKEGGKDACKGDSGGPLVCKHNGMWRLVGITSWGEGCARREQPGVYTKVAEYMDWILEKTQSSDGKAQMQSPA
Sequence of human plasma kallikrein (P03952 20-390 partner limits assumed): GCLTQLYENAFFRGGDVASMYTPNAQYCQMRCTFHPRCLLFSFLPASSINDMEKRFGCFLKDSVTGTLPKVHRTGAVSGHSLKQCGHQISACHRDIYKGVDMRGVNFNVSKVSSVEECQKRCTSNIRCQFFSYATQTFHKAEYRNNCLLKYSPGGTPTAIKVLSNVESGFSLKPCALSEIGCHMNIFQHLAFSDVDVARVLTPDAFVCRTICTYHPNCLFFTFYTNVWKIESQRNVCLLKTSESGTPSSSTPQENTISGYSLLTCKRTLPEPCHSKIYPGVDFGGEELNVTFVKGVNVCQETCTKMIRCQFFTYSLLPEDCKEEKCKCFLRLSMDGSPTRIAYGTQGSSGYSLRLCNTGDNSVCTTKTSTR
Description: An inhibitor sample is dissolved in a 0.05 M Tris-hydrochloric acid buffer solution (pH = 7.8) to bring the total volume to 400 µl. […] Then, 50 µl of a 0.l2 unit/ml human plasma kallikrein is added and the mixture is incubated at a temperature of 37°C for 5 minutes. Thereafter, 50 µl of 50% acetic acid is added to terminate the reaction. […] Thus, the concentration I₅₀ (µmol) of the inhibitor sample, at which the absorbance is one half (i.e., l/2) of that obtained in the absence of the inhibitor sample, is determined.

NCCCCC(=O)N[C@@H](Cc1ccccc1)C(=O)Nc1ccc(C(=O)c2ccccc2)cc1 [Compound No. 2, N-(5-aminovaleryl)-L-phenylalanine 4-benzoylanilide]
IC50 (bovine thrombin [1]): > 200 µM | IC50 (human plasmin [2]): > 100 µM | IC50 (bovine trypsin): 75 µM | IC50 (human plasmin [3]): 120 µM | IC50 (bovine thrombin [4]): > 100 µM

CCOC(=O)CC(O)CNC(=O)[C@H](Cc1ccccc1)NC(=O)CCCCCN (stereo partly drawn) [compound 5]
IC50 (human urokinase): > 500 µM | IC50 (bovine thrombin [1]): > 500 µM | IC50 (human plasmin [2]): > 500 µM | IC50 (human plasmin [3]): > 500 µM | IC50 (bovine thrombin [4]): > 500 µM | IC50 (human plasma kallikrein): > 500 µM

CC(=O)c1ccc(NC(=O)[C@H](Cc2ccccc2)NC(=O)c2ccc(NC(=N)N)cc2)cc1 [compound 15]
IC50 (human urokinase): 190 µM | IC50 (bovine thrombin [1]): 330 µM | IC50 (human plasmin [2]): > 200 µM | IC50 (bovine trypsin): 14 µM | IC50 (human plasmin [3]): > 400 µM | IC50 (bovine thrombin [4]): > 500 µM | IC50 (human plasma kallikrein): 2.2 µM

COC(=O)[C@@H]1CCCN1C(=O)[C@H](Cc1ccccc1)NC(=O)c1ccc(NC(=N)N)cc1 [compound 22]
IC50 (human urokinase): > 1000 µM | IC50 (bovine thrombin [1]): > 1000 µM | IC50 (human plasmin [2]): > 1000 µM | IC50 (human plasmin [3]): > 1000 µM | IC50 (bovine thrombin [4]): > 1000 µM | IC50 (human plasma kallikrein): > 1000 µM
